# Results reported in publication PMC6504873, “High-throughput screening of the Plasmodium falciparum cGMP-dependent protein kinase identified a thiazole scaffold which kills erythrocytic and sexual stage parasites” (Scientific Reports, 2019).
# Key:
# WT PfPKG = target: T1, WT PfPKG (Plasmodium falciparum, UniProt Q8I719); test: Kinase Glo enzymatic assay, recombinant WT PfPKG; assay type: biochemical, P. falciparum
# T1 construct: recombinant full length wild type (WT) PfPKG; His6 (N); host or cells: E. coli BL21
# T1 sequence (Q8I719 whole entry): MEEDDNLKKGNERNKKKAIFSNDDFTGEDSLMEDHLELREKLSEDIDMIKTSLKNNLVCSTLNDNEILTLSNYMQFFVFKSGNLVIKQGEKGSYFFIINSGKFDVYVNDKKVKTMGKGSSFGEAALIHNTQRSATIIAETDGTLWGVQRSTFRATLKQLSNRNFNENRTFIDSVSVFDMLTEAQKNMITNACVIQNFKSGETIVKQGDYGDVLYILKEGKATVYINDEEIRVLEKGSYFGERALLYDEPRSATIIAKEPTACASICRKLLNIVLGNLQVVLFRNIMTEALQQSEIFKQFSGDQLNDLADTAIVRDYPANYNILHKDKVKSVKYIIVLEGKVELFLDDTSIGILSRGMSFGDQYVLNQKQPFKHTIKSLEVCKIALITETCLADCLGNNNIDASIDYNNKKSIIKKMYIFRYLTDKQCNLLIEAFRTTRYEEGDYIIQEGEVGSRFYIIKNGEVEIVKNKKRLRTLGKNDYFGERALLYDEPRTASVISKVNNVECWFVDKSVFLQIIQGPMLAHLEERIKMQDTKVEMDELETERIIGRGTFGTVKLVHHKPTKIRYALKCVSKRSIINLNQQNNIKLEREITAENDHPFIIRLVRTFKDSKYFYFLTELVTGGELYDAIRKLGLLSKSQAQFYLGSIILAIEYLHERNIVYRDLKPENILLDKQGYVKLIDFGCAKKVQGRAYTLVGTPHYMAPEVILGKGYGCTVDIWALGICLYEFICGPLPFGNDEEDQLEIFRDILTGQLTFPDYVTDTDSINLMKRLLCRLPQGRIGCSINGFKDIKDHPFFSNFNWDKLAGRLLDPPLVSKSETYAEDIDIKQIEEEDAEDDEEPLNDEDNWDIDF
# Description: To identify new PKG inhibitor scaffolds, the 1.7 million GlaxoSmithKline Full Diversity collection was tested at a single final concentration of 10 μM against recombinant full length wild type (WT) PfPKG using a Kinase Glo-based assay (Promega). The results gave a robust Z′ mean value of 0.85. At an average statistical cut-off of 30%, 20,174 primary hits were identified with an overall hit rate of 1%. Fresh samples of these primary hits were tested in duplicate against WT PfPKG and also against human PKGIα (HuPKGIα) (Supplementary Fig. 1) at a final concentration of 10 μM (confirmation step).
# Protein production was outsourced to the Division of Signal Transduction Therapy, University of Dundee. Briefly, the pTRChis expression vectors (Invitrogen) containing an N-terminally His6-tagged PfPKG wildtype and T618Q were used to transform BL21 cells (protocol adapted from[23]). The cells were grown at 37 °C until the OD600 was 0.4–0.6 then the temperature was reduced to 15 °C and the cells were induced with 250 µM IPTG and grown for a further 16–18 hours before harvesting. The His6-PfPKG was purified on Cobalt agarose followed by gel filtration and the protein was dialysed into 25 mM Hepes pH 7.5, 0.1 mM EGTA, 150 mM NaCl, 50% glycerol and 2 mM DTT.
# Initial optimization of the PKG assay was performed manually in 384-well plates and analysed with GraFit 7. The buffer for all assays was 25 mM HEPES pH 7.3 (GIBCO), 10 mM MgCl2 (Sigma), 2 mM DTT (Sigma), 0.01 mM cGMP (Sigma), 0.1 mg/ml BSA (Ambion). Enzymatic activity was tested using a luminescence-based kit (Promega KinaseGlo). Addition of the first reagent depletes the unused ATP and addition of the second reagent converts ADP (product of the kinase reaction) to ATP, which is then measured through a luciferin/luciferase reaction. The amount of luminescence is directly proportional to ATP turnover by the kinase. The kit was chosen because it can be miniaturized to small volumes (i.e. 4 µl) in 1536-well plates, for use in HTS.
# We used PKA peptide substrate (SCP0212, Sigma-Aldrich) for WT and TQ PfPKG, dissolved in milliQ water at a final concentration of 5 mM, and Long S6 peptide substrate (produced at the University of Dundee, sequence […]) for HuPKGIα, dissolved in water at a final concentration of 30 mM.
# We calculated the Michaelis-Menten (Km) constant for ATP and peptide substrate (PKA or Long S6) for all enzymes using GraphPad Prism (Supplementary Figs 2 and 3 and Supplementary Table 3). In order to identify different types of PKG inhibitors, including ATP competitive or non-competitive inhibitors, as well as inhibitors that bind to the peptide substrate pocket, we performed all assays using ATP and peptide substrate at a concentration equal to the Km. We also determined enzyme activity by calculating ATP turnover (Kcat) over the Km (Supplementary Table 3). The Kcat was calculated as (Vmax*slope)/[E] where Vmax is the maximum velocity and [E] is the concentration of the enzyme.
# The plates containing the compounds were prepared at GSK in Upper Providence or Stevenage. Compounds were tested at a single final concentration of 10 µM or in a dose response with a range of concentrations starting from 100 μM to 1.6 nM (1 in 3 serial dilutions). Compounds were dispensed in the plates at the required concentration in a 40 nl volume. All plates (1536-well white Greiner) contained 40 nl of DMSO in lanes 11 and 12 (control 1, 100% enzyme activity) and were empty in lanes 35 and 36 (control 2, 0% enzyme activity). The plates were removed from −20 °C 1 hour before starting the assay. Using a Multidrop Combi dispenser (Thermo Scientific), 2 µl of the buffer containing ATP and the substrate were added to all wells then 2 µl of buffer only were added to column 35 and 36. Finally 2 µl of buffer containing the enzyme were dispensed in all the plate wells except for lanes 35 and 36. […]
# [1] = AM_Perm (artificial membrane permeability); assay type: in vitro ADME
# [2] = ChromlogD (lipophilicity)
# [3] = WT PfPKG (μM), recombinant WT PfPKG
Structure (SMILES),IC50 (WT PfPKG; [3]) [µM],AM Perm [1] [×10⁻⁶ cm/s],chromatographic logD [2],"IC50 (WT PfPKG; IC50 (WT PfPKG activity), Figure 3, most scored compound of each cluster and singletons) [µM]"
CCn1cc(-c2ccncn2)c(-c2cccc(NS(=O)(=O)c3cc(F)ccc3F)c2)n1 [Compound 2],0.041,50.1,4,
Cc1ccc(S(C)(=O)=O)cc1Nc1nccc(-c2sc(CC(N)=O)nc2-c2ccccc2)n1 [Compound 3],0.013,36.7,3.3,
CC(C)(CN)c1cc(-c2ccc(Cl)c(O)c2)c(-c2ccncc2)o1 [Compound 4],0.0017,53.1,3.1,0.002
CCn1c(-c2nonc2N)nc2c(-c3ccccc3)ncc(CN(C)C3CCN(C)CC3)c21 [Compound 5],0.039,22.9,3.7,
CNS(=O)(=O)c1cccc(Nc2ccnc(Nc3cccc(S(=O)(=O)NC)c3)n2)c1 [Compound 6],0.07,12.7,3.4,
COc1ccc(-c2c(-c3cccc(C(=O)N4CCN(C)CC4)c3)oc3ncnc(N)c23)cc1 [Compound 7],0.01,32.4,2.6,
COc1ccc(CCNC(=O)CSc2ncnc3[nH]ncc23)cc1OC [Compound 8],0.104,7,2.3,
COc1cccc(Nc2nc(-c3ccncc3)cc(N3CCN(C)CC3)n2)c1 [Compound 9],0.027,59.9,3.6,
COc1cc(CS(C)(=O)=O)ccc1Nc1nc(Nc2cc(F)ccc2C(N)=O)c2cc[nH]c2n1 [Compound 10],0.05,7.7,3.3,
O=C(N[C@@H](CO)c1ccccc1)c1ccc2cncc(-c3cn[nH]c3)c2n1 [Compound 11],0.094,8.6,1.9,
NCCNCc1ccc(-c2cc3ccncc3cc2OC2CCNCC2)s1 [Compound 12],0.324,1.2,-0.36,
CNCCOc1cnc(-c2ccoc2C)c(-c2ccc3cnccc3c2)c1 [Compound 13],0.007,43.1,2.1,
O=C(c1cccc(OCc2cccnc2)c1)N1CCc2sccc2C1CN1CCCCC1 (stereo not shown) [Compound 14],0.036,55.1,3.9,
Nc1ccc2c(-c3ccncc3)c(-c3ccc(Cl)c(O)c3)[nH]c2n1 [Compound 15],0.022,11,2.1,
Nc1nc(Nc2cccc3cnccc23)nn1C(=O)C1CCCCC1 [Compound 16],0.09,33.9,4.6,
